Results from publication PMC4865820, “Branched Peptide, B2088, Disrupts the Supramolecular Organization of Lipopolysaccharides and Sensitizes the Gram-negative Bacteria” (Scientific Reports, 2016).
Positions of bridges follow the written chain, without caps; N, C: chain ends. Residues, ends and D or L forms follow the SMILES beside them. Chains are numbered I, II in the order given.

Key:
[1] = test system: P. aeruginosa ATCC 27853; assay: microbe, parasite or virus in culture; format: cell-based; conditions: ATCC 27853, 24 h
Experimental: (§1) MIC of each peptide was determined using the microdilution method in a 96 well microtitre plates (SPL Life Sciences Co., Ltd, Korea). Two-fold serial dilutions of each peptide in Mueller-Hinton Broth (MHB) was prepared from a 1 mg/ml stock solution of the peptide in the same broth, to obtain a final concentration in the range of 0.0976–50 μg/ml in each well. Bacterial suspensions (P. aeruginosa ATCC 27853, P. aeruginosa 4877, P. aeruginosa 23155, K. pneumoniae ATCC 10031 and K. pneumoniae 4299) were prepared by suspending the overnight cultured bacteria in saline and adjusting the inoculum to ~10^8 colony forming units (CFU) per ml. A further 150-fold dilution was then prepared in MHB to achieve a final cell density of 10^5–10^6 CFU/ml. In each well, 100 μl of inoculum was mixed with the equal volume of peptides at their 2× concentration. Positive and negative controls contained 200 μl of inoculum (without any peptide) and broth alone (no peptide/inoculum) respectively. Another negative control in which MHB containing 200 μl of peptide alone in its highest concentration tested (50 μg/ml) was also included to ensure that the optical density measured in the test wells was not due to turbidity of the peptides in solution. The 96 well polystyrene plates were then incubated at 37 °C for 24 h and the optical density at 600 nm (OD600) was measured every 30 min continuously using a TECAN microplate reader (TECAN Infinite 200, Austria). All the experiments were performed in two independent duplicates and the MIC was determined as the lowest peptide concentration in which no visible growth was observed.

[2] = test system: P. aeruginosa DR4877/07; format: cell-based; conditions: for Fractional inhibitory concentration of peptide/PMB, combination with Chloarm / Fractional inhibitory concentration of peptide/PMB, combination with Erythro / Fractional inhibitory concentration of peptide/PMB, combination with Levo / Fractional inhibitory concentration of peptide/PMB, combination with Tobra: first number in parenthesis; for Fractional inhibitory concentration of antibiotic, Chloarm combination / Fractional inhibitory concentration of antibiotic, Erythro combination / Fractional inhibitory concentration of antibiotic, Levo combination / Fractional inhibitory concentration of antibiotic, Tobra combination: second number in parenthesis
Experimental: (§2) The synergism between peptides with conventional antibiotics was evaluated using checkerboard assays. For a comparison polymyxin B (PMB) was also tested against each antibiotic. From their stock solutions, two-fold dilutions of each antibiotic and peptide to 1× MIC were prepared in MHB. 50 μl of each peptide concentration was added into the wells of a 96-well polystyrene plates (SPL Life Sciences Co. Ltd, Korea) in a horizontal orientation and the same volume of each antibiotic concentration were then added in a vertical orientation. Bacterial suspensions were prepared in MHB to yield final cell density of ~10^6 CFU/ml and 100 μl of bacterial suspension was mixed with each peptide-antibiotic combinations. This procedure was repeated for wells containing 200 μl of peptide alone and 200 μl of antibiotic alone in various concentrations. The positive and negative controls contained 200 μl of inoculum and MHB alone respectively. The plates were incubated at 37 °C for 24 hours and the optical density at 600 nm (OD600) was monitored as before. Fractional inhibitory concentration index (FICI) for all antibiotic- peptide combinations was calculated through the summation of (MIC of peptide in the combination/ MIC of peptide alone) and (MIC of antibiotics in combination/MIC of antibiotic alone). The experiments were performed in two independent duplicates and the combinations that gave the lowest FICI values was reported.

[3] = test system: P. aeruginosa ATCC 27853; format: cell-based; conditions: ATCC 27853; for Fractional inhibitory concentration of peptide/PMB, combination with Genta: first number in parenthesis; for Fractional inhibitory concentration of antibiotic, Genta combination: second number in parenthesis
Experimental: as §2

[4] = test system: K. pneumonia 4299; assay: microbe, parasite or virus in culture; format: cell-based, K. pneumoniae; conditions: 24 h
Experimental: as §1

[5] = test system: LPS (E. coli serotype 055:B5); assay: BODIPY TR cadaverine (BC) displacement assay with LPS; format: binding; conditions: no unit in table; ED50 values in μM; 5 mM HEPES pH 7.4; duplicates; read-out: BC50 (LPS binding)
Text: To investigate the interaction of B2088 with LPS, we performed the BODIPY TR cadaverine (BC) displacement assay reported by Wood et al.[22]. The probe binds to the lipid A part of the LPS with moderate affinity and can be displaced by putative LPS-binding molecules. The method was used to probe the affinity of polycationic molecules and LPS binding proteins. First, we determined the affinity of polymyxin B (PMB), a lipopeptide cyclic antibiotic which has a high affinity for LPS. […] Figure 1a,b show the concentration-dependent displacement of LPS/lipid A-bound BC upon addition of B2088. […] To confirm the importance of branching, we determined the BC50 for a linear retrodimer having the amino acid sequence, […] (Fig. 1d). The determined value was 2-fold higher (3.9 ± 0.1 μM) than that of B2088, confirming a weaker affinity of the linear peptide.
The BC displacement assay was used to determine the ability of each peptide to bind to LPS. The florescent probe, BODIPY TR cadaverine (BC) was purchased from Molecular Probes/ Invitrogen (USA). A stock solution containing 1 mg/ml of LPS (E. coli serotype 055:B5) was prepared in dimethyl sulfoxide (DMSO) and another stock solution containing 1 mg/ml of BC dye was prepared in 5 mM HEPES buffer (pH 7.4). The optimum saturation concentration of BC:LPS ratio was standardized following the protocol provided by Wood et al. (22). From the BC stock, 240 μl was mixed with 500 μl from the LPS stock solution in 5 mM HEPES buffer (pH 7.4) to prepare 20 ml of BC:LPS mixture. Two-fold serial dilutions of each peptide in 5 mM HEPES buffer (pH 7.4) was prepared from their 1 mg/ml stock solutions to obtain a final range of 0.02–25.6 μM. The BC:LPS mixture was added to 100 μl of each peptide congener in a 1:1 ratio in each well of a 96-well black Costar™ polystyrene microtitre plate (Corning Incorporated, NY, USA). The maximum fluorescence intensity (Fmax) was determined using a mixture containing 100 μl PMB (50 μg/ml) and 100 μl BC:LPS solution, as PMB is considered the ‘gold standard’ for LPS-sequestering agents. The minimum fluorescence intensity (F0) was measured using 200 μl of BC:LPS mixture to determine the background noise for this experiment. Fluorescence measurements for each peptide (F) were determined using a microplate reader (Model: TECAN Infinite 200, Austria) with excitation and emission wavelengths set at 580 nm and 620 nm respectively. The percentage of BC displacement was then calculated using the formula: […]
The experiments were performed in duplicates and the effective concentration required for 50% displacement of BC dye (ED50) from LPS with respect to PMB was determined by curve fitting using Graphpad Prism (CA, USA). A higher ED50 value for the peptide indicates a lower affinity for LPS.

[6] = test system: P. aeruginosa ATCC 9027; assay: Outer membrane permeability assay (NPN); format: cell-based; conditions: no unit in table; Fig. S5 axis [Peptide], μM; 10 μM NPN, 5 mM HEPES pH 7.4, ex 355/em 405 nm; average of two titrations; read-out: PC50 (peptide concentration for half-maximal NPN intensity, OM permeability)
Experimental: The ability of each peptide to permeabilize the OM of Gram-negative organisms was determined using the hydrophobic fluorescent probe 1-N-phenylnaphthylamine (NPN) as previously reported. P. aeruginosa ATCC 9027 cells from an overnight MHB culture were harvested after centrifuging at 3000 rpm for 10 minutes. The pellet was washed twice, suspended in 5 mM HEPES (N- 2-hydroxyethylpiperazine-N’-2 ethanesulfonic acid) buffer (pH 7.4) and adjusted to an OD600 of 0.200. A suspension containing 600 μl of bacteria cells and 1 μl of a concentrated stock solution of NPN was mixed into a 10 mm stirred quartz cuvette so that the final concentration of the probe remained 10 μM. Aliquots containing 1 μl of each peptide in various concentrations (100, 50, 25, 15, 10, 5, 2.5 and 1 μg/ml) were added upon NPN dye stabilization. The fluorescence intensity was monitored using a Quanta Master spectrophotometer with a constant slit width of 0.5 nm, excitation and emission wavelengths set at 355 nm and 405 nm respectively. The peptide concentration required for half-maximal intensity (PC50) was determined by sigmoidal curve fitting using Graphpad Prism software. The experimental data is average of two independent titration experiments.

[7] = test system: P. aeruginosa 23155; format: cell-based; conditions: 23155, 24 h
Experimental: as §1

[8] = test system: K. pneumoniae ATCC10031; format: cell-based; conditions: ATCC10031, 24 h
Experimental: as §1

Compound	Minimum Inhibitory Concentration against P. aeruginosa ATCC 27853 [1] [µM]	Fractional inhibitory concentration of peptide/PMB, combination with Chloarm [2]	Fractional inhibitory concentration of peptide/PMB, combination with Erythro [2]	Fractional inhibitory concentration of peptide/PMB, combination with Levo [2]	Fractional inhibitory concentration of peptide/PMB, combination with Tobra [2]	Fractional inhibitory concentration of antibiotic, Chloarm combination [2]	Fractional inhibitory concentration of antibiotic, Erythro combination [2]	Fractional inhibitory concentration of antibiotic, Levo combination [2]	Fractional inhibitory concentration of antibiotic, Tobra combination [2]	Fractional inhibitory concentration of peptide/PMB, combination with Genta [3]	Fractional inhibitory concentration of antibiotic, Genta combination [3]	Minimum Inhibitory Concentration against K. pneumonia 4299 [4] [µM]	EC50 [5] [µM]	EC50 [6] [µM]	Minimum Inhibitory Concentration against P. aeruginosa 23155 [7] [µM]	Minimum Inhibitory Concentration against K. pneumoniae ATCC10031 [8] [µM]
CC(C)C[C@H](NC(=O)[C@H](CCCCN)NC(=O)[C@H](CCCNC(=N)N)NC(=O)CNC(=O)[C@@H](N)CCCNC(=N)N)C(=O)N[C@@H](CC(C)C)C(=O)N[C@@H](CCCNC(=N)N)C(=O)N[C@@H](CCCNC(=N)N)C(=O)NCCCC[C@H](NC(=O)[C@H](CCCNC(=N)N)NC(=O)[C@H](CCCNC(=N)N)NC(=O)[C@H](CC(C)C)NC(=O)[C@H](CC(C)C)NC(=O)[C@H](CCCCN)NC(=O)[C@H](CCCNC(=N)N)NC(=O)CNC(=O)[C@@H](N)CCCNC(=N)N)C(=O)N[C@@H](CCCCN)C(=O)O (I: H-RGRKLLRRKK-OH / II: H-RGRKLLRR; amide I:9-II:C; N-terminus and C-terminus assumed)	2.7	0.25	(0.5,0.5)	0.5	(0.25,0.25)	0.13	(0.5,0.5)	0.06	(0.25,0.25)	(0.25,0.25)	(0.25,0.25)	5.3	1.47 ± 0.02	17.5 ± 0.4	2.7	5.3
N=C(N)NCCC[C@H](NC(=O)CNC(=O)[C@@H](N)CCCNC(=N)N)C(=O)N[C@@H](CCCCN)C(=O)N[C@@H](Cc1c[nH]c2ccccc12)C(=O)N[C@@H](Cc1c[nH]c2ccccc12)C(=O)N[C@@H](CCCNC(=N)N)C(=O)N[C@@H](CCCNC(=N)N)C(=O)NCCCC[C@H](NC(=O)[C@H](CCCNC(=N)N)NC(=O)[C@H](CCCNC(=N)N)NC(=O)[C@H](Cc1c[nH]c2ccccc12)NC(=O)[C@H](Cc1c[nH]c2ccccc12)NC(=O)[C@H](CCCCN)NC(=O)[C@H](CCCNC(=N)N)NC(=O)CNC(=O)[C@@H](N)CCCNC(=N)N)C(=O)N[C@@H](CCCCN)C(=O)O (I: H-RGRKWWRRKK-OH / II: H-RGRKWWRR; amide I:9-II:C; N-terminus and C-terminus assumed)	9.5	0.5	(0.5,0.5)	0.5	0.5	0.13	(0.5,0.5)	0.25	0.25	0.5	0.06	19	6.8 ± 0.12	31.1 ± 4.6	9.5	9.5
N=C(N)NCCC[C@H](NC(=O)CNC(=O)[C@@H](N)CCCNC(=N)N)C(=O)N[C@@H](CCCCN)C(=O)N[C@@H](Cc1ccc(O)cc1)C(=O)N[C@@H](Cc1ccc(O)cc1)C(=O)N[C@@H](CCCNC(=N)N)C(=O)N[C@@H](CCCNC(=N)N)C(=O)NCCCC[C@H](NC(=O)[C@H](CCCNC(=N)N)NC(=O)[C@H](CCCNC(=N)N)NC(=O)[C@H](Cc1ccc(O)cc1)NC(=O)[C@H](Cc1ccc(O)cc1)NC(=O)[C@H](CCCCN)NC(=O)[C@H](CCCNC(=N)N)NC(=O)CNC(=O)[C@@H](N)CCCNC(=N)N)C(=O)N[C@@H](CCCCN)C(=O)O (I: H-RGRKYYRRKK-OH / II: H-RGRKYYRR; amide I:9-II:C; N-terminus and C-terminus assumed)	4.5	0.25	0.5	0.5	0.25	0.13	0.06	0.25	0.13	(0.25,0.25)	(0.25,0.25)	9.0	2.5 ± 0.04	21.9 ± 0.2	4.5	4.5
